{
  "source": "patent US12128035B2",
  "about": "“Activating pyruvate kinase R” (Novo Nordisk Health Care AG, priority 2021, dated 2024)",
  "key": {"[1]": {"tested_on": "H295R adreno-cortical carcinoma cell line", "assay": "Steroid modulation screen in vitro", "type": "cell-based", "conditions": "tested at 200 to 0.0002 μM; only at top concentration", "procedure": "To assess potential effects on steroidogenesis, Compound 1 was screened for steroid modulation in vitro using the H295R adreno-cortical carcinoma cell line (at 200 to 0.0002 μM) and in an assay to monitor cell viability (MTT Kit). Compound 1 indicated steroid modulation potential (% over vehicle) only at 200 μM, the top concentration tested, with 100% cellular viability at concentrations ≤20 μM (90% viability at 200 μM)."}, "sickle RBCs [2]": {"tested_on": "sickle RBCs", "assay": "Phase 1: Lorrca Osmoscan in SCD patients", "type": "in vivo, human", "procedure": "(§1) In this study, SAD/MAD cohorts are randomized (3 to 1) to receive Compound 1 or placebo (P). Compound 1 was evaluated first in 4 healthy SAD cohorts and 4 healthy MAD (14-day dosing period) cohorts. Based on the safety, and PK/PD profile from HS, Compound 1 is then evaluated in 1 SCD SAD cohort and 2 SCD MAD cohorts. Specifically, based on the safety and pharmacokinetic/pharmacodynamics (PK/PD) profile in healthy volunteer studies, Compound 1 is evaluated in patients (pts) with SCD, first in a single dose (SD or SAD) cohort and then in multiple-dose (MD or MAD) cohorts (14-day and 12-week). Safety assessments include AEs, vital signs, ECGs and laboratory parameters. PK/PD blood sampling was performed on Day 1 (SAD/MAD) and Day 14 (MAD) and up to 72 h after the last dose and at the end-of-study visit. PD parameters included 2,3-DPG, ATP, and p50 in all cohorts with additional PD studies (including oxygen scan) performed only in the SCD cohorts. PD parameters included 2,3-DPG, ATP, p50, RBC deformability with controlled deoxygenation and reoxygenation (Lorrca® oxygen scan) and varying osmolality (Lorrca® osmoscan)). To maintain study blind, pt identifiers were removed when needed.\n(§2) Functional evaluation of RBCs was performed using Laser-Optical Rotational Red Cell Analyzer (Lorrca®) technology (RR Mechatronics, Zwaag, The Netherlands). Osmoscan was performed for healthy subjects, and both Oxygenscan and Osmoscan analyses were undertaken for the patients with SCD. In brief, the Oxygenscan allows for the measurement and visualisation of RBC elongation in shear stress in an oxygen gradient, during deoxygenation and re-oxygenation, expressed as the elongation index (EI). […] Evaluated Osmoscan parameters included: EImax; Omin (osmolality at ELmax; hypotonic region), which corresponds to the value of the hypotonic osmolality at which 50% of the cells hemolyse in an osmotic fragility assay and provides information on the initial surface-to-volume ratio of the RBCs; and Ohyper (osmolality corresponding to 50% of the EImax; hypertonic region), which correlates with the initial intracellular viscosity of the cell sample. […]\nThe effects of a single dose of Compound 1 (700 mg) versus placebo on oxygen scan, oxygen affinity (p50), and osmoscan in SCD patients were evaluated. […] In order to measure the impact of Compound 1 on this critical function, the effect of Compound 1 compared to placebo on the deformability of SCD RBCs across an osmolality gradient was evaluated. […]"}, "[3]": {"target": "T1, wt-PKR in mature human erythrocytes (Homo sapiens, UniProt P30613)", "T1 construct": "host or cells: purified human RBCs from donors", "T1 sequence (P30613 whole entry)": "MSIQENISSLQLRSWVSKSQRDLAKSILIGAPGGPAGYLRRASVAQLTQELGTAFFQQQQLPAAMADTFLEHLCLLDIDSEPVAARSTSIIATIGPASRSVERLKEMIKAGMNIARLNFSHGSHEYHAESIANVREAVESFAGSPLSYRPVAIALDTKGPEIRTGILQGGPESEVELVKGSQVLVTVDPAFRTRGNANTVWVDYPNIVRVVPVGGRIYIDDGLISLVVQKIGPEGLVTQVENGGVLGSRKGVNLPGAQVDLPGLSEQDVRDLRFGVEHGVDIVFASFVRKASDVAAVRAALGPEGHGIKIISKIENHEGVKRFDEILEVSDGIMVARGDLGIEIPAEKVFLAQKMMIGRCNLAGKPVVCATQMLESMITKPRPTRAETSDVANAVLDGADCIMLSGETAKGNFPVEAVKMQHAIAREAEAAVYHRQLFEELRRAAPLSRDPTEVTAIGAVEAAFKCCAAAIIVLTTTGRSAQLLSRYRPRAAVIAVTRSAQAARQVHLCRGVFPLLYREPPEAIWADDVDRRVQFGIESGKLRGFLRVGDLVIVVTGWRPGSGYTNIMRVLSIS", "assay": "Cell assay: PKR activation in human RBCs (Biovision Pyruvate Kinase Assay)", "type": "cell-based", "conditions": "3 hr treatment", "procedure": "The activation of wt-PKR by Compound 1 in mature human erythrocytes ex vivo was evaluated in purified RBCs purchased from Research Blood Components. Cells treated with Compound 1 for 3 hr in glucose-containing media were washed, lysed, and assayed using a Biovision Pyruvate Kinase Assay (K709-100). The assay was repeated multiple times to account for donor-to-donor variability and the relatively narrow dynamic range."}, "[4]": {"assay": "Phase 1: hematologic and hemolytic laboratory parameters in SCD patients", "type": "in vivo, human", "conditions": "SCD single 700 mg dose"}, "[5]": {"tested_on": "estradiol and testosterone levels", "assay": "Circulating estradiol and testosterone in healthy subjects, 14 days", "type": "in vivo, human", "conditions": "up to 14 days, 100-300 mg BID or 400 mg QD", "procedure": "Effects on circulating levels of estradiol and testosterone in male and female healthy subjects receiving Compound 1 or placebo for a treatment period of 14 days were evaluated. Compound 1 was administered twice daily (BID) at dose levels of 100 mg, 200 mg, and 300 mg, and once daily (QD) at a dose level of 400 mg. Each dosing cohort was comprised of 9 subjects treated with Compound 1 and 3 subjects treated with placebo. Testosterone and estradiol levels were assessed prior to dosing (baseline), and then on days 8, 14 and 17."}, "[6]": {"tested_on": "Red blood cells from SCD patients", "assay": "Ex vivo Hgb oxygen equilibrium curves in SCD RBCs", "type": "cell-based, human", "conditions": "10 μM", "procedure": "Red blood cells from SCD patients were used to evaluate the effects of Compound 1 on Hgb affinity for oxygen (i.e., oxygen affinity) and sickling under hypoxic conditions. Cells were incubated at 37° C. for 1, 2, and 3 hr with HEPES buffered saline (HBS) (untreated), HBS+dimethyl sulfoxide (DMSO) (vehicle), or 10 μM Compound 1. To assess oxygen dissociation, Hgb oxygen equilibrium curves were collected during deoxygenation."}, "sickle RBCs [7]": {"tested_on": "sickle RBCs", "assay": "Phase 1: Lorrca Oxygenscan in SCD patients", "type": "in vivo, human", "conditions": "SCD single 700 mg, Post-dose (24 hours), median (range)", "procedure": "as §1, with “To maintain study blind, pt identifiers were removed when needed.” left out\nas §2, with “Osmoscan was performed for healthy subjects, and both Oxygenscan and Osmoscan analyses were undertaken for the patients with SCD.” left out\nThe effects of a single dose of Compound 1 (700 mg) versus placebo on oxygen scan, oxygen affinity (p50), and osmoscan in SCD patients were evaluated. […]"}},
  "note": "Values joined by “and” are separate entries in the source; they are usually repeats but may differ in a detail not shown here. Equal values may be shown once. “Also recorded” adds a separate entry of the source.",
  "data": [
    {"smiles": "O=C([C@H](CO)c1ccccc1)N1CC2=C(C1)CN(S(=O)(=O)c1cnc3c(c1)OCCO3)C2", "note": "(single isomer, unassigned) [Compound 1]", "values": [
      {"measurement": "concentration indicating steroid modulation potential (% over vehicle)", "setting": "[1]", "result": 200, "unit": "µM"},
      {"measurement": "EImax (Osmoscan)", "setting": "sickle RBCs [2]; SCD single 700 mg, Post-dose (24 hours), median (range), pre-dose 0.483 (0.46, 0.57)", "result": "0.478 (0.46, 0.57)"},
      {"measurement": "Omin (Osmoscan)", "setting": "sickle RBCs [2]; SCD single 700 mg, Post-dose (24 hours), median (range), pre-dose 108 (105, 121)", "result": "117 (106, 124)"},
      {"measurement": "Ohyper (Osmoscan)", "setting": "sickle RBCs [2]; SCD single 700 mg, Post-dose (24 hours), median (range), pre-dose 380 (371, 399)", "result": "400 (371, 412)"},
      {"measurement": "time to return to baseline of Oxygenscan/Osmoscan effects", "setting": "sickle RBCs [2]; SCD, after the single 700 mg dose", "result": "3 to 7", "unit": "days"},
      {"measurement": "Max − Min (%), Mean", "setting": "[3]; mean of replicates", "result": "< 100", "unit": "%"},
      {"measurement": "Max − Min (%)", "setting": "[3]; single replicates", "result": "<125% and <150% and <100% and <50%"},
      {"measurement": "Hb difference versus placebo", "setting": "[4]; 24 h", "result": "~0.9", "unit": "g/dL"},
      {"measurement": "increase in Hb", "setting": "[4]; 24 hours, range 0.3, 0.9", "result": 0.5, "unit": "g/dL"},
      {"measurement": "testosterone and estradiol levels", "setting": "[5]", "result": "no effect on estradiol and testosterone levels; also recorded: No effect on testosterone or estradiol levels; also recorded: no statistically significant changes and no clinically meaningful trends"},
      {"measurement": "Hgb saturation higher compared to DMSO-treated cells", "setting": "[6]; 2 hr", "result": "approximately 10%"},
      {"measurement": "p50", "setting": "[6]; after 1 hr, shifted from 29 mmHg", "result": 25, "unit": "mmHg"},
      {"measurement": "Hemoglobin Saturation", "setting": "[6]; incubation 1 hr, normalized to 1.00 (DMSO 1.18)", "result": 1.05},
      {"measurement": "Hemoglobin Saturation", "setting": "[6]; incubation 2 hr, normalized to 1.00 (DMSO 1.18)", "result": 1.00},
      {"measurement": "Hemoglobin Saturation", "setting": "[6]; incubation 3 hr, normalized to 1.00 (DMSO 1.30)", "result": 1.02},
      {"measurement": "EImin (Oxygenscan)", "setting": "sickle RBCs [7]; pre-dose 0.193 (0.16, 0.21)", "result": "0.296 (0.26, 0.38)"},
      {"measurement": "EImax (Oxygenscan)", "setting": "sickle RBCs [7]; pre-dose 0.445 (0.41, 0.51)", "result": "0.451 (0.42, 0.52)"},
      {"measurement": "POS (Oxygenscan)", "setting": "sickle RBCs [7]; pre-dose 35.4 (27.3, 38.8)", "result": "24.0 (17.9, 31.8)"}
    ]}
  ]
}
